Assay results: US20230374015A1, “INHIBITORS OF FIBROBLAST GROWTH FACTOR RECEPTOR KINASES” (Kinnate Biopharma Inc., priority 2020, published 2023)

target: FGFR2 (Homo sapiens, UniProt P21802); experiment: FGFR2 Kinase Protocol - Condition 2 (Reaction Biology HotSpot radiometric kinase assay, no preincubation); assay type: biochemical; conditions: poly[Glu:Tyr] (4:1) 0.2 mg/ml, ATP 100 microM, 2 hr room temperature
In short: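 Radiometric HotSpot format: FGFR2 (wildtype or V564F) with poly[Glu:Tyr] (4:1) at 0.2 mg/ml in HEPES pH 7.5 buffer with 1% DMSO; ATP plus [γ33P]ATP at 100 µM total, added without preincubation. Reactions ran 2 hr at room temperature, then filter-bound. IC50 from 10-dose, 3-fold series versus DMSO control.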

Chain of FGFR2 (P21802 22-821): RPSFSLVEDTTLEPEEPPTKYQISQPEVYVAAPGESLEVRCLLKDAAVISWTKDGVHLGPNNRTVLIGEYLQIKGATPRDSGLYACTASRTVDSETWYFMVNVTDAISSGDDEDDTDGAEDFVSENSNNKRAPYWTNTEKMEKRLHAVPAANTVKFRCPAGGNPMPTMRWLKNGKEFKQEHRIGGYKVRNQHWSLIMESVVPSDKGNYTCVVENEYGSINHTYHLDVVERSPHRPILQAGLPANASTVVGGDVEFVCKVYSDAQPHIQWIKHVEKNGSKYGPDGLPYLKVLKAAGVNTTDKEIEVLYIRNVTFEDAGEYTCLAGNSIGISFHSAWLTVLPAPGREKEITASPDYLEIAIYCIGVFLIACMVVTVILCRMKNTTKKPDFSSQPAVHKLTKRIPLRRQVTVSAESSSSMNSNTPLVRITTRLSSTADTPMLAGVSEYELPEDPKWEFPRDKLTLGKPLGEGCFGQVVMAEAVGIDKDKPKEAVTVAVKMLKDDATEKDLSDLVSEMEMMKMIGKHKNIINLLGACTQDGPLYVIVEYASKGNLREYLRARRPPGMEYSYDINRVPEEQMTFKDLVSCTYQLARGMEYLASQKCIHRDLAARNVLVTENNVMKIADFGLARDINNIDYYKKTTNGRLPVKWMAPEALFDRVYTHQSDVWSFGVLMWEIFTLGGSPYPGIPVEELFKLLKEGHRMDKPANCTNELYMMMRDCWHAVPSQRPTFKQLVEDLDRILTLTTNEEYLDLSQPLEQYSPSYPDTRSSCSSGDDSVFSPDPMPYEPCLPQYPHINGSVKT

IC50, ≤ 100 nM:
C=CC(=O)N1C[C@@H](n2cc(C#Cc3cc4nc(C)n(C)c4cc3Cl)c3c(N)ncnc32)C[C@@H]1COC [Example 101, 1-[(2R,4S)-4-[4-Amino-5-[2-(6-chloro-1,2-dimethyl-1,3-benzodiazol-5-yl)ethynyl]pyrrolo[2,3-d]pyrimidin-7-yl]-2-(methoxymethyl)pyrrolidin-1-yl]prop-2-en-1-one]
C=CC(=O)N1C[C@@H](n2nc(C#Cc3c(Cl)cc4c(nc(C)n4C)c3F)c3c(N)ncnc32)C[C@@H]1COC [Example 102, 1-((2R,4S)-4-(4-Amino-3-((6-chloro-4-fluoro-1,2-dimethyl-1H-benzo[d]imidazol-5-yl)ethynyl)-1H-pyrazolo[3,4-d]pyrimidin-1-yl)-2-(methoxymethyl)pyrrolidin-1-yl)prop-2-en-1-one]
C=CC(=O)N1C[C@@H](n2nc(C#Cc3c(Cl)cc4c(nc(C)n4C)c3F)c3c(N)nccc32)C[C@@H]1COC [Example 103, 1-((2R,4S)-4-(4-Amino-3-((6-chloro-4-fluoro-1,2-dimethyl-1H-benzo[d]imidazol-5-yl)ethynyl)-1H-pyrazolo[4,3-c]pyridin-1-yl)-2-(methoxymethyl)pyrrolidin-1-yl)prop-2-en-1-one]
C=CC(=O)N1C[C@@H](n2nc(C#Cc3c(Cl)cc4c(ncn4C)c3F)c3c(N)ncnc32)C[C@@H]1COC [Example 104, 1-[(2R,4S)-4-[4-Amino-3-[2-(6-chloro-4-fluoro-1-methyl-1,3-benzodiazol-5-yl)ethynyl]pyrazolo[3,4-d]pyrimidin-1-yl]-2-(methoxymethyl)pyrrolidin-1-yl]prop-2-en-1-one]
C=CC(=O)N1C[C@@H](n2nc(C#Cc3c(Cl)cc4c(ncn4C)c3F)c3c(N)nccc32)C[C@@H]1COC [Example 105, 1-[(2R,4S)-4-[4-Amino-3-[2-(6-chloro-4-fluoro-1-methyl-1,3-benzodiazol-5-yl)ethynyl]pyrazolo[4,3-c]pyridin-1-yl]-2-(methoxymethyl)pyrrolidin-1-yl]prop-2-en-1-one]
C=CC(=O)N1C[C@@H](n2cc(C#Cc3c(Cl)cc4c(ncn4C)c3F)c3c(N)ncnc32)C[C@@H]1COC [Example 106, 1-[(2R,4S)-4-[4-Amino-5-[2-(6-chloro-4-fluoro-1-methyl-1,3-benzodiazol-5-yl)ethynyl]pyrrolo[2,3-d]pyrimidin-7-yl]-2-(methoxymethyl)pyrrolidin-1-yl]prop-2-en-1-one]
C=CC(=O)N1C[C@@H](n2cc(C#Cc3c(F)cc4[nH]c(C)nc4c3F)c3c(N)ncnc32)C[C@@H]1COC [Example 107, 1-[(2R,4S)-4-[4-Amino-5-[2-(4,6-difluoro-2-methyl-1H-1,3-benzodiazol-5-yl)ethynyl]pyrrolo[2,3-d]pyrimidin-7-yl]-2-(methoxymethyl)pyrrolidin-1-yl]prop-2-en-1-one]
C=CC(=O)N1C[C@@H](n2nc(C#Cc3cc4ncn(C5CC5)c4cc3F)c3c(N)ncnc32)C[C@@H]1COC [Example 108, 1-[(2R,4S)-4-[4-Amino-3-[2-(1-cyclopropyl-6-fluoro-1,3-benzodiazol-5-yl)ethynyl]pyrazolo[3,4-d]pyrimidin-1-yl]-2-(methoxymethyl)pyrrolidin-1-yl]prop-2-en-1-one]
C=CC(=O)N1C[C@@H](n2nc(C#Cc3cc4ncn(C5CC5)c4cc3F)c3c(N)nccc32)C[C@@H]1COC [Example 109, 1-[(2R,4S)-4-[4-Amino-3-[2-(1-cyclopropyl-6-fluoro-1,3-benzodiazol-5-yl)ethynyl]pyrazolo[4,3-c]pyridin-1-yl]-2-(methoxymethyl)pyrrolidin-1-yl]prop-2-en-1-one]
C=CC(=O)N1C[C@@H](n2cc(C#Cc3cc4ncn(C5CC5)c4cc3F)c3c(N)ncnc32)C[C@@H]1COC [Example 110, 1-[(2R,4S)-4-[4-Amino-5-[2-(1-cyclopropyl-6-fluoro-1,3-benzodiazol-5-yl)ethynyl]pyrrolo[2,3-d]pyrimidin-7-yl]-2-(methoxymethyl)pyrrolidin-1-yl]prop-2-en-1-one]
